In PubChem BioAssay AID208 (DTP/NCI, 2004) one finds T/C data, which are given here for 21 compounds.

Where “and” joins values, the source holds several entries; their conditions need not be identical. Equal entries are not always repeated. Results filed as inconclusive are left out.

For this assay, the system named is HT29 intrarenal xenograft, nude mice, tumor weight change. Nature of the assay: NCI In Vivo Anticancer Drug Screen. Data for tumor model HT29;CX-1 Human Adenocarcinoma (MER+) (intrarenal inoculation) in NU/NU BALB/C (nude) mice. The settings on record: endpoint: mean tumor weight change, higher = larger tumour. As to the method: The antitumor activity of compounds was measured in mice bearing transplantable tumors. Survival or tumor size were measured and the results are expressed as the measurement made in the treated group (T) divided by the measurement made in the vehicle treated control group (C). The tumor model used in this assay is HT29;CX-1 Human Adenocarcinoma (MER+) (intrarenal inoculation) in NU/NU BALB/C (nude) mice

The mark [1] stands for this setting: dose: 25.0 mg/kg/injection, schedule: Q01DX010 (sc), vehicle: saline.
The mark [2] stands for this setting: dose: 100.0 mg/kg/injection, schedule: Q01DX010 (sc), vehicle: saline.
Setting [3] is: dose: 200.0 mg/kg/injection, schedule: Q01DX010 (sc), vehicle: saline.
Setting [4] is: dose: 600.0 mg/kg/injection, schedule: Q04DX004 (ip), vehicle: Klucel (hydroxypropylcellulose) (HPC).
Setting [5] is: dose: 600.0 mg/kg/injection, schedule: Q04DX004 (sc), vehicle: saline.
The mark [6] stands for this setting: dose: 3.0 mg/kg/injection, schedule: Q04DX004 (sc), vehicle: saline.
Where [7] appears, read: dose: 6.0 mg/kg/injection, schedule: Q04DX004 (sc), vehicle: saline.

As for `COc1cc([C@@H]2c3cc4c(cc3[C@@H](OC3OC5CO[C@@H](c6cccs6)OC5C(O)C3O)[C@H]3COC(=O)[C@H]23)OCO4)cc(OC)c1O` (some centres not stated), the T/C was 225 % of control (dose: 8.0 mg/kg/injection, schedule: Q01DX010 (sc), vehicle: saline); 221 % of control (dose: 16.0 mg/kg/injection, schedule: Q01DX010 (sc), vehicle: saline); 189 % of control (dose: 32.0 mg/kg/injection, schedule: Q01DX010 (sc), vehicle: saline); 191 % of control (dose: 33.0 mg/kg/injection, schedule: Q01DX010 (sc), vehicle: saline); 60 % of control (dose: 66.0 mg/kg/injection, schedule: Q01DX010 (sc), vehicle: saline); 151 % of control (dose: 132.0 mg/kg/injection, schedule: Q01DX010 (sc), vehicle: saline). The T/C (dose: 264.0 mg/kg/injection, schedule: Q01DX010 (sc), vehicle: saline) was 38 % of control.
`C1CC[N-]CC1.[Cl][Pt+2][Cl].[NH-]C1CC1`: the T/C runs as follows: (dose: 25.0 mg/kg/injection, schedule: Q04DX004 (sc), vehicle: water) 99 % of control; (dose: 50.0 mg/kg/injection, schedule: Q04DX004 (sc), vehicle: water) 46 % of control.
For `O=C(O)CC(NC(=O)CP(=O)(O)O)C(=O)O` (configuration not stated), the T/C is 123 % of control under setting [1]; 94 % of control (dose: 50.0 mg/kg/injection, schedule: Q01DX010 (sc), vehicle: saline); 91 % of control under setting [2]; 70 % of control under setting [3].
Consider `C=C(C)C(=O)O[C@H]1CC2=C[C@@H](C[C@@]3(C)O[C@@H]3[C@H]3OC(=O)C(=C)[C@@H]31)OC2=O`, for which the T/C is, setting by setting: (dose: 75.0 mg/kg/injection, schedule: Q04DX004 (sc), vehicle: Klucel (hydroxypropylcellulose) (HPC)) 75 % of control; (dose: 150.0 mg/kg/injection, schedule: Q04DX004 (sc), vehicle: Klucel (hydroxypropylcellulose) (HPC)) 121 % of control.
Consider `Nc1nc2ccc(NCc3ccc(C(=O)NC(CCC(=O)O)C(=O)O)cc3)cc2c(=O)[nH]1` (configuration not stated), for which the T/C reads like this: (dose: 200.0 mg/kg/injection, schedule: Q04DX004 (sc), vehicle: saline with Tween-80) 92 % of control; (dose: 400.0 mg/kg/injection, schedule: Q04DX004 (sc), vehicle: saline with Tween-80) 105 % of control.
Take `O=C1c2ccccc2C(=O)c2c1cn1c2Cc2ccccc2C1`: the T/C is 908 % of control (dose: 37.5 mg/kg/injection, schedule: Q04DX004 (ip), vehicle: Klucel (hydroxypropylcellulose) (HPC)); 537 % of control (dose: 75.0 mg/kg/injection, schedule: Q04DX004 (ip), vehicle: Klucel (hydroxypropylcellulose) (HPC)); 753 % of control (dose: 150.0 mg/kg/injection, schedule: Q04DX004 (ip), vehicle: Klucel (hydroxypropylcellulose) (HPC)); 188 % of control (dose: 300.0 mg/kg/injection, schedule: Q04DX004 (ip), vehicle: Klucel (hydroxypropylcellulose) (HPC)); 450 % of control under setting [4].
With `O=P1(N(CCCl)CCCl)NCCCO1` (configuration not stated), the T/C is 62 % of control and 77 % of control and 83 % of control (dose: 60.0 mg/kg/injection, schedule: Q04DX004 (ip), vehicle: saline); 19 % of control and 21 % of control (dose: 100.0 mg/kg/injection, schedule: Q04DX004 (sc), vehicle: saline).
As to `O=C(O)CP(=O)(O)O`, the T/C was 51 % of control under setting [5]; 118 % of control (dose: 1200.0 mg/kg/injection, schedule: Q04DX004 (sc), vehicle: saline); 34 % of control (dose: 2400.0 mg/kg/injection, schedule: Q04DX004 (sc), vehicle: saline).
Take `C(CSC1=NCCN1)CSC1=NCCN1`: the T/C by setting is: under setting [1], 78 % of control; under setting [2], 66 % of control; under setting [3], 46 % of control.
For `O=C(NC1CCCCC1)OCc1c(COC(=O)NC2CCCCC2)c(-c2ccc(Cl)c(Cl)c2)n2c1CCC2`, the T/C (dose: 150.0 mg/kg/injection, schedule: Q04DX004 (sc), vehicle: saline with Tween-80) was 67 % of control; the T/C (dose: 300.0 mg/kg/injection, schedule: Q04DX004 (sc), vehicle: saline with Tween-80) is 60 % of control; the T/C (dose: 600.0 mg/kg/injection, schedule: Q04DX004 (sc), vehicle: saline with Tween-80) is 54 % of control; the T/C (dose: 1200.0 mg/kg/injection, schedule: Q04DX004 (sc), vehicle: saline with Tween-80) was 65 % of control.
Take `CNC=O`: the T/C runs as follows: (dose: 100.0 mg/kg/injection, schedule: Q01DX010 (ip), vehicle: saline) 81 % of control; (dose: 200.0 mg/kg/injection, schedule: Q01DX010 (ip), vehicle: saline) 64 % of control; (dose: 400.0 mg/kg/injection, schedule: Q01DX010 (ip), vehicle: saline) -33 % of control.
Consider `COC(=O)[C@@]12OC[C@]34[C@H]([C@@H](O)[C@@H]1O)[C@@]1(C)CC(=O)C(O)=C(C)[C@@H]1C[C@H]3OC(=O)[C@H](OC(=O)/C=C(\C)C(C)C)[C@@H]24`, for which the T/C (dose: 0.5 mg/kg/injection, schedule: Q01DX010 (sc), vehicle: saline + alcohol) is 35 % of control.
As for `O=C1CCC(=O)N1CO`, the T/C runs as follows: (dose: 150.0 mg/kg/injection, schedule: Q04DX004 (sc), vehicle: saline) 66 % of control; (dose: 300.0 mg/kg/injection, schedule: Q04DX004 (sc), vehicle: saline) 80 % of control; under setting [5], 74 % of control.
Take `O=c1[nH]c(=O)n([C@H]2CCCO2)cc1F`: the T/C by setting is: (dose: 46.4 mg/kg/injection, schedule: Q01DX010 (ip), vehicle: Klucel (hydroxypropylcellulose) (HPC)) 41 % of control; (dose: 69.8 mg/kg/injection, schedule: Q01DX010 (ip), vehicle: Klucel (hydroxypropylcellulose) (HPC)) 68 % of control; (dose: 104.6 mg/kg/injection, schedule: Q04DX004 (ip), vehicle: Klucel (hydroxypropylcellulose) (HPC)) 61 % of control; (dose: 157.4 mg/kg/injection, schedule: Q04DX004 (ip), vehicle: Klucel (hydroxypropylcellulose) (HPC)) 40 % of control; (dose: 157.8 mg/kg/injection, schedule: Q01DX010 (ip), vehicle: Klucel (hydroxypropylcellulose) (HPC)) 31 % of control; (dose: 236.7 mg/kg/injection, schedule: Q04DX004 (ip), vehicle: Klucel (hydroxypropylcellulose) (HPC)) 53 % of control.
As to `Nc1nc(=O)n(C2OC(CO)C(O)C2O)cc1F` (configuration not stated), the T/C is, setting by setting: (dose: 300.0 mg/kg/injection, schedule: Q04DX004 (ip), vehicle: saline) 66 % of control; (dose: 600.0 mg/kg/injection, schedule: Q04DX004 (ip), vehicle: saline) 64 % of control; (dose: 900.0 mg/kg/injection, schedule: Q04DX004 (ip), vehicle: saline) 53 % of control; (dose: 1200.0 mg/kg/injection, schedule: Q04DX004 (ip), vehicle: saline) 88 % of control.
For the compound `N#CC(=C1SCS1)[N+](=O)[O-]`, the T/C under setting [6] was 69 % of control and the T/C under setting [7] is 113 % of control.
`O.O.[NH-]C1CCCCC1[NH-].[Pt+2]` (configuration not stated): the T/C is 98 % of control (dose: 5.0 mg/kg/injection, schedule: Q01DX010 (sc), vehicle: dextrose); 75 % of control (dose: 10.0 mg/kg/injection, schedule: Q01DX010 (sc), vehicle: dextrose); 34 % of control (dose: 20.0 mg/kg/injection, schedule: Q01DX010 (sc), vehicle: dextrose); 19 % of control (dose: 40.0 mg/kg/injection, schedule: Q01DX010 (sc), vehicle: dextrose).
As to `Oc1c(Cl)cc(Cl)cc1C=NCCSc1ccc(Cl)cc1`, the T/C is, setting by setting: under setting [4], 105 % of control and 88 % of control; (dose: 1200.0 mg/kg/injection, schedule: Q04DX004 (ip), vehicle: Klucel (hydroxypropylcellulose) (HPC)) 80 % of control.
With `CCCNC1=C(C)C(=O)C2=C(C1=O)[C@H](COC(N)=O)[C@]1(OC)[C@@H]3N[C@@H]3CN21`, the T/C by setting is: (dose: 1.5 mg/kg/injection, schedule: Q04DX004 (sc), vehicle: saline) 26 % of control; under setting [6], 91 % of control; under setting [7], 87 % of control and 91 % of control; (dose: 12.0 mg/kg/injection, schedule: Q04DX004 (sc), vehicle: saline) 5 % of control and 26 % of control.
With `c1ccc2c(c1)-c1ccccc1C1NC21` (configuration not stated), the T/C (dose: 75.0 mg/kg/injection, schedule: Q04DX004 (sc), vehicle: saline with Tween-80) was 41 % of control.
In the case of `Cc1cc(N)c2ccccc2[n+]1CCCCCCCCCC[n+]1c(C)cc(N)c2ccccc21`, the T/C reads like this: (dose: 0.38 mg/kg/injection, schedule: Q01DX010 (ip), vehicle: dextrose) 101 % of control; (dose: 0.75 mg/kg/injection, schedule: Q01DX010 (ip), vehicle: dextrose) 101 % of control; (dose: 1.5 mg/kg/injection, schedule: Q01DX010 (ip), vehicle: dextrose) 81 % of control.
